One may read the IC50 as the concentration that inhibits the measured activity by half. A high value points to weaker potency in that assay.

Structures are written as SMILES.

The values below come from article PMC8393474, “The Interaction of Hemin, a Porphyrin Derivative, with the Purified Rat Brain 2-Oxoglutarate Carrier” (Biomolecules, 2021).

This experiment has as its target T1, 2-oxoglutarate carrier (OGC) (Rattus norvegicus, UniProt P97700).
T1 construct: gene Slc25a11; native carrier purified from rat brain mitochondria, reconstituted into proteoliposomes
T1 sequence (P97700 2-314): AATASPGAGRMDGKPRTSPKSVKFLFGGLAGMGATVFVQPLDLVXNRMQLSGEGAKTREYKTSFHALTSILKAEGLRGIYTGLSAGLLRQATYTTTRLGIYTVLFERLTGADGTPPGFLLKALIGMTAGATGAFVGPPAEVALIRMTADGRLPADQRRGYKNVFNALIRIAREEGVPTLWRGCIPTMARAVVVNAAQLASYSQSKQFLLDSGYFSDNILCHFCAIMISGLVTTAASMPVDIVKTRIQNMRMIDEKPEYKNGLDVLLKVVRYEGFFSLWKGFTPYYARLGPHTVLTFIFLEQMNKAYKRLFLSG
In words: inhibition of […] 2-oxoglutarate or […] malate uptake in proteoliposomes reconstituted with purified OGC; Lineweaver-Burk and Dixon plots. In kind it is biochemical.

On to `C=CC1=C(C)C2=Cc3c(C=C)c(C)c4[n]3[Fe]([Cl])[n]3c(c(C)c(CCC(=O)O)c3=CC3=NC(=C4)C(C)=C3CCC(=O)O)=CC1=N2` [hemin], for which the IC50 was 1.58 ± 0.22 µM.
